According to publication PMC9595134, “Novel pituitary actions of GnRH in teleost: The link between reproduction and feeding regulation” (Frontiers in Endocrinology, 2022):
Where a SMILES comes first, the peptide text is derived from it. [ ]: non-standard residue; d: D form. pGlu = O=C1CC[C@@H](C(=O)O)N1

System: grass carp pituitary cells
Assay: RNA-seq of pituitary cells treated with GnRH3
Assay type: cell-based, grass carp (Ctenopharyngodon idellus)
Conditions: GnRH3 1 μM, 24 h
Source text: Then, total RNA was extracted from each well by TRIzol reagent (Yeasen) and DNase II was used to eliminate the interference of genomic DNA. The concentration and purity of each RNA sample were detected by a NanoDrop 2000 spectrophotometer, while the quality of RNA was identified on an Agilent 2100 Bioanalyzer using the RNA 6000 Nano Kit (Agilent Technologies, Santa Clara, CA, USA). […] In this study, a read depth of 0.6 billion 150-bp single-end reads was used and about 90% of reads were mapped to the genome. Gene expression levels were assigned individual values by being normalized to the number of transcripts per kilobase of exon model per million […]. […] The P-value indicated the credibility of each differential gene expression and was corrected by the false discovery rate (FDR) ([21]). […] In the present study, using grass carp pituitary cells as model, high-throughput RNA-seq was used to examine the pituitary actions of GnRH3 in teleost. […] The most abundant GO terms among the cellular component category were ‘intracellular part’, ‘membrane-bounded organelle’, ‘intracellular membrane-bounded organelle’, ‘organelle part’, and ‘intracellular organelle part’. Furthermore, the plentiful groups of biological processes were ‘metabolic process’, ‘organic substance metabolic process’, ‘primary metabolic process’, ‘cellular metabolic process’, and ‘biological regulation ( Figure 3A ).

CC(C)C[C@H](NC(=O)[C@H](Cc1c[nH]c2ccccc12)NC(=O)CNC(=O)[C@H](Cc1ccc(O)cc1)NC(=O)[C@H](CO)NC(=O)[C@H](Cc1c[nH]c2ccccc12)NC(=O)[C@H](Cc1c[nH]cn1)NC(=O)[C@@H]1CCC(=O)N1)C(=O)N1CCC[C@H]1C(=O)NCC(N)=O [GnRH3] ([pGlu]HWSYGWLPG-NH2)
fold change (FC), suhb mRNA (3-Beta-hydroxysteroid sulfotransferase, FDR 2.86E-22): 0.44 | fold change (FC), atp5me mRNA (ATP synthase subunit e, FDR 5.40E-07): 0.69 | fold change (FC), arpc4 mRNA (Actin-related protein 2/3 subunit 4-like, FDR 1.86E-42): 0.66 | fold change (FC), creb2 mRNA (Activating transcription factor 4b, FDR 1.69E-07): 1.56 | fold change (FC), cart2 mRNA (Amphetamine-regulated transcript II precursor, FDR 1.73E-22): 19.16 | fold change (FC), anx11 mRNA (Annexin 11a, FDR 0): 3.17 | fold change (FC), mx1 mRNA (Antiviral effector Mx3, FDR 0.004203): 0.29 | fold change (FC), manf mRNA (Astrocyte-derived neurotrophic factor, FDR 6.58E-124): 1.71 | fold change (FC), npr3 mRNA (Atrial natriuretic peptide receptor 3 isoform X1, FDR 0): 11.53 | fold change (FC), e2.7.3.2 mRNA (Brain creatine kinase b, FDR 0): 3.88 | fold change (FC), agrb1 mRNA (Brain-specific angiogenesis inhibitor 1-like, FDR 0): 8.87 | fold change (FC), calm mRNA (Calmodulin, FDR 2.37E-221): 0.68 | fold change (FC), ctsl mRNA (Cathepsin La isoform X1, FDR 0): 2.55 | fold change (FC), cckar mRNA (Cholecystokinin receptor-like isoform, FDR 0.40): 1.41 | fold change (FC), chd4 mRNA (Chromodomain-DNA-binding protein 4, FDR 3.30E-172): 0.64 | fold change (FC), ctro mRNA (Citron Rho-interacting kinase, FDR 3.29E-164): 5.24 | fold change (FC), bha15 mRNA (Class A basic helix-loop-helix protein 15, FDR 0): 1.66 | fold change (FC), sod1 mRNA (Copper/zinc superoxide dismutase, FDR 1.09E-31): 0.69 | fold change (FC), mdh1 mRNA (Cytosolic malate dehydrogenase, FDR 4.31E-77): 0.68 | fold change (FC), dgkz mRNA (Diacylglycerol kinase zeta-like isoform X1, FDR 0.003213): 0.41 | fold change (FC), drd2 mRNA (Dopamine D2 receptor, FDR 2.63E-37): 0.35 | fold change (FC), rergl mRNA (Estrogen-regulated inhibitor-like protein, FDR 2.35E-26): 6.29 | fold change (FC), npy2r mRNA (Europeptide Y receptor type 2-like, FDR 0.07342027): 0.44 | fold change (FC), fabp7 mRNA (Fatty acid binding protein 7, FDR 5.12E-107): 0.50 | fold change (FC), fabp3 mRNA (Fatty-acid binding protein 3b, FDR 1.56E-177): 0.63 | fold change (FC), fth1 mRNA (Ferritin heavy chain, FDR 0): 1.90 | fold change (FC), gmpr1 mRNA (GMP reductase 1, FDR 2.64E-126): 0.61 | fold change (FC), bip mRNA (GRP78, FDR 5.39E-31): 1.78 | fold change (FC), ggh mRNA (Gamma-glutamyl hydrolase, FDR 1.06E-186): 1.51 | fold change (FC), grp mRNA (Gastrin-releasing peptide-like, FDR 1.46E-176): 1.52 | fold change (FC), gst mRNA (Glutathione S-transferase, FDR 8.59E-06): 0.67 | fold change (FC), gphb5 mRNA (Glycoprotein hormone beta-5, FDR 2.13E-64): 0.69 | fold change (FC), gthα mRNA (Glycoprotein hormones alpha chain, FDR 0): 1.28 | total number of different expression genes (DEGs) (three replicates, TPM >5, FDR <0.05): 820 | number of downregulated genes (three replicates, TPM >5, FDR <0.05, FC <0.7): 575 | number of upregulated genes (three replicates, TPM >5, FDR <0.05, FC >1.5): 245 | fold change (FC), pa2g3 mRNA (Group 3 secretory phospholipase A2-like, FDR 6.47E-212): 0.29 | fold change (FC), hpt mRNA (Haptoglobin-like, FDR 4.16E-131): 5.16 | fold change (FC), hmgb1 mRNA (High-mobility group box 1, FDR 7.95E-46): 0.69 | fold change (FC), hint1 mRNA (Histidine triad nucleotide-binding protein 1, FDR 7.80E-16): 0.66 | fold change (FC), h2a mRNA (Histone H2A, FDR 1.56E-20): 0.63 | fold change (FC), h2b3 mRNA (Histone H2B 3, FDR 4.58E-23): 0.53 | fold change (FC), h4 mRNA (Histone H4, FDR 0.002615): 0.68 | fold change (FC), inhba mRNA (Inhibin-beta A, FDR 1.08E-11): 1.90 | fold change (FC), il10ra mRNA (Interleukin-10 receptor 1, FDR 0.009871): 27.19 | fold change (FC), erg7 mRNA (Lanosterol synthase, FDR 1.00E-62): 0.43 | fold change (FC), lepr mRNA (Leptin receptor long form, FDR 6.73E-61): 2.60 | fold change (FC), lhβ mRNA (Luteinizing hormone, FDR 0): 1.32 | fold change (FC), rfx1 mRNA (MHC class II regulatory factor RFX1, FDR 0): 0.28 | fold change (FC), mvp mRNA (Major vault protein, FDR 2.14E-255): 0.64 | fold change (FC), mshr1 mRNA (Melanocyte-stimulating hormone receptor, FDR 0): 0.43 | fold change (FC), m3k20 mRNA (Mitogen-activated protein kinase kinase 20, FDR 0.00526): 0.31 | fold change (FC), smad7 mRNA (Mothers against decapentaplegic homolog 7, FDR 7.44E-31): 1.78 | fold change (FC), mcfd2 mRNA (Multiple coagulation factor deficiency protein, FDR 3.57E-236): 1.65 | fold change (FC), marcksl1b mRNA (Myristoylated alanine-rich C substrate 2, FDR 2.63E-101): 0.67 | fold change (FC), nab1 mRNA (NGFI-A-binding protein 1, FDR 3.65E-131): 5.88 | fold change (FC), nec1 mRNA (Neuroendocrine convertase 1, FDR 0): 1.54 | fold change (FC), nfasc mRNA (Neurofascin, FDR 5.61E-52): 10.71 | fold change (FC), nmb mRNA (Neuromedin-B-like, FDR 4.39E-07): 3.29 | fold change (FC), nltp mRNA (Non-specific lipid-transfer protein, FDR 2.86E-12): 0.41 | fold change (FC), nucb1 mRNA (Nucleobindin-1 precursor, FDR 1.72E-149): 1.56 | fold change (FC), nlrp3 mRNA (PYD domains-containing protein 3-like, FDR 0.000497): 0.26 | fold change (FC), fkbp11 mRNA (Peptidyl-prolyl cis-trans isomerase, FDR 0): 1.94 | fold change (FC), gpr61 mRNA (Probable G-protein coupled receptor-like, FDR 2.17E-78): 7.06 | fold change (FC), pdyn mRNA (Proenkephalin-B-like isoform X1, FDR 7.38E-17): 5.14 | fold change (FC), prl mRNA (Prolactin, FDR 0): 1.22 | fold change (FC), s100b mRNA (Protein S100-B, FDR 3.01E-240): 0.31 | fold change (FC), ppp1r17 mRNA (Protein phosphatase 1 regulatory 17-like, FDR 2.87E-10): 0.68 | fold change (FC), r4rl2 mRNA (Reticulon 4 receptor-like 2b precursor, FDR 6.85E-299): 93.68 | fold change (FC), estd mRNA (S-formylglutathione hydrolase, FDR 4.80E-36): 0.37 | fold change (FC), scg2 mRNA (Secretogranin II precursor, FDR 0): 1.51 | fold change (FC), sqstm1 mRNA (Sequestosome-1 isoform X1, FDR 0): 1.69 | fold change (FC), cdc42bp mRNA (Serine/threonine-protein kinase MRCK beta, FDR 0.004184): 0.37 | fold change (FC), plk2 mRNA (Serine/threonine-protein kinase PLK2, FDR 0): 5.78 | fold change (FC), sec11 mRNA (Signal peptidase complex catalytic subunit, FDR 1.55E-131): 1.55 | fold change (FC), spcs3 mRNA (Signal peptidase complex subunit 3, FDR 2.74E-239): 1.77 | fold change (FC), sstr3 mRNA (Somatostatin receptor type 3, FDR 3.09E-126): 0.42 | fold change (FC), stat4 mRNA (Stat 4-like, FDR 9.86E-21): 0.86 | fold change (FC), stat5a mRNA (Stat5.2 protein, FDR 0.04174356): 0.89 | fold change (FC), sdf2l mRNA (Stromal cell-derived factor 2-like 1, FDR 1.30E-57): 1.55 | fold change (FC), tt39b mRNA (Tetratricopeptide repeat protein 39B-like, FDR 6.74E-06): 6.76 | fold change (FC), rdl mRNA (Thiosulfate sulfurtransferase, FDR 3.51E-111): 1.57 | fold change (FC), ppp1r10 mRNA (Threonine-protein phosphatase 1 regulatory, FDR 2.43E-39): 0.42 | fold change (FC), junb mRNA (Transcription factor jun-B, FDR 2.36E-96): 1.89 | fold change (FC), rhoa mRNA (Transforming protein rhoa, FDR 0.042946): 0.32 | fold change (FC), tpisb mRNA (Triosephosphate isomerase B, FDR 8.61E-53): 0.68 | fold change (FC), tph1 mRNA (Tryptophan 5-hydroxylase 1, FDR 0): 17.70 | fold change (FC), tubb mRNA (Tubulin beta-4B chain, FDR 3.79E-49): 0.40 | fold change (FC), tsg6 mRNA (Tumor necrosis factor-inducible gene 6 protein, FDR 1.99E-06): 5.12 | fold change (FC), crh mRNA (Urotensin 1, FDR 6.72E-06): 1.74 | fold change (FC), snf8 mRNA (Vacuolar-sorting protein SNF8-like, FDR 1.18E-06): 0.44 | fold change (FC), vdac3 mRNA (Voltage-dependent anion-selective protein 3, FDR 5.87E-44): 0.69 | fold change (FC), zbtb8 mRNA (Zinc finger domain-containing protein 8A, FDR 1.08E-73): 1.69 | fold change (FC), zfp36l mRNA (Zinc finger protein 36, C3H type-like 1b, FDR 1.92E-125): 0.66 | fold change (FC), pim1 mRNA (threonine-protein kinase pim-1, FDR 0): 3.25
